From paper PMC9952391, “The Role of Acetyl Zingerone and Its Derivatives in Inhibiting UV-Induced, Incident, and Delayed Cyclobutane Pyrimidine Dimers” (Antioxidants, 2023)
Values joined by “and” are separate entries in the source; they are usually repeats but may differ in a detail not shown here. Equal values may be shown once.

Key:
[1] = tested on: human keratinocytes (HaCaT); test: Cell survival assay (Alamar blue), keratinocytes; type: cell-based; conditions: 24 h pre-incubation, Supplementary Figure S2
[2] = tested on: incident CPDs (iCPDs) in albino C57BL/6 melanocytes (Mel-c); test: iCPD assessment by DNA ELISA after ssUV, Mel-c; type: cell-based, mouse; conditions: various doses up to 1 mg/mL, 24 h, Figure 4B
From the text: (§1) For UV exposures, we used a “SOL-UV6 ultraviolet solar simulator” from Newport irradiators. It is equipped with a Xenon arc lamp where the output is varied using the integrated variable attenuator aperture, which provides the ability to vary the output from 10% to 100% of the maximum available solar constants. The output spectrum is flat from 320 nm to 400 nm and no values are below 300 nm. This is abbreviated as “ssUV” for “solar-simulated UV” throughout the text. Various cell types seeded at ~50% confluency, were treated with the AZ and analogs at concentrations mentioned in the data figures for 24–h. Cells at ~80–90% confluency (untreated controls), were washed twice with PBS and exposed to 18 kJ/m^2 of ssUV in minimal amount of PBS (ex. 2 mL PBS in a 60 mm cell culture dish) without any dish lid in place. […] The ssUV apparatus was monitored almost daily using UV meters for any emissions below 300 nm. The dose was decided based upon the 80–90% cell survival post UV exposure. After exposure, one time point was collected immediately to assess iCPDs, whereas more dishes were incubated in cell culture medium, inside the cell culture incubator, for various time points to be collected post UV to assess dCPDs. For dCPD induction, it is important that the cell culture incubator is not opened for at least 30 min (the first time point post UV) to avoid possible interference from the CO2/O2 ratio, which will be altered upon opening the incubator doors. Cells were collected by scraping and washed once with PBS, which was followed by DNA isolation using a Quick DNA miniprep Kit (Cat. D3024, Zymo Research, Irvine, CA, USA). CPDs were assessed using our previously established DNA ELISA protocols. In brief, ELISA was performed using mouse monoclonal Anti-CPD (Cat. CAC-NM-DND-001, Clone TDM-2, CosmoBio, Inc., Carlsbad, CA, USA). […] A measure of 50 µL of 2M H2SO4 was used to stop the reaction as soon as the color developed (5–10 min incubation in substrate), and OD was measured at 490 nm using a Synergy-2 multimode microplate reader (BioTek, Winooski, VT, USA).

[3] = tested on: incident CPDs (iCPDs) in HaCaT cells; test: iCPD assessment by DNA ELISA after ssUV, HaCaT; type: cell-based, human
From the text: as §1

[4] = tested on: delayed (dark) CPDs (dCPDs) in Mel-a cells; test: dCPD assessment by DNA ELISA post ssUV, Mel-a; type: cell-based, mouse; conditions: for Inhibition of delayed CPDs (dCPDs): Mel-a, 50 µg/mL, 24–36 h preincubation, 0.5 to 4 h post ssUV, Figure 4C
From the text: as §1

[5] = tested on: Xpa, Xpc, Mitf, Xrcc1 expression in Mel-c; test: qPCR expression of NER pathway genes, Mel-c; type: cell-based, mouse; conditions: 24 h incubation; for Gene expression of Xpa, Xpc and Mitf (NER pathway): no UV
Protocol: Various cell types were collected 24-h post incubation with 200 µg/mL AZ and MBPD, with and without ssUV exposure. RNA was isolated using a Quick-RNA isolation kit (Cat. R1050, Zymo Research). The cDNA was prepared using a High-Capacity cDNA Reverse Transcription Kit (Cat. 4368814, ThermoFisher Scientific). The gene expression of XPA, XPC, and MITF genes was assessed using the following primers. β-actin was used as an internal control for normalizations and data analyses. F1-R1 and F2-R2 represents two primer pairs which were used in the qPCR experiments.

[6] = tested on: nitrotyrosine / nitric oxide synthase (NOS) activity in Mel-a melanocytes; test: Immunofluorescence for nitrotyrosine (marker of NOS activity); type: cell-based, mouse; conditions: 50 µg/mL, 24–36 h
Protocol: Posttranslational modification nitrotyrosine was used as a marker of nitric oxide synthase (NOS) activity. Melanocytes were cultured on collagen-coated, glass-bottom dishes (cat. P35G-1.5-14-C, MatTek, Ashland, MA, USA). After various treatments, cells were fixed with 4% formaldehyde for 10 min at RT, washed with PBS, and permeabilized with 0.5% Triton-X in PBS for 10 min. After blocking for non-specific antibody binding using 5% goat serum (Cat. 16210064, ThermoFisher Scientific) and 1% globulin free BSA (Cat. 001-000-161, Jackson ImmunoResearch, West Grove, PA, USA) in 0.1% Triton-x in PBS (blocking buffer) for 2 h at room temperature, cells were incubated with 1:1000 dilution of anti-nitrotyrosine antibody (Cat. A-21285, ThermoFisher Scientific) overnight at 4 °C. Detection was conducted using Alexa Fluor 488 Goat Anti-rabbit IgG (Cat. A-11008, Life Technologies). Imaging was performed using a ZEISS Axio Observer microscope. Approximately 5–10 images per condition, with ~70–100 cells per image, were quantitated for nitrotyrosine fluorescence using ImageJ software.

[7] = tested on: melanocytes; design: method as in PMID 31538664; conditions: 25 µg/mL; cited from earlier work
[8] = tested on: MMP-3; design: method as in PMID 31465741; conditions: in vitro assays; cited from earlier work

Structure (SMILES)	Cytotoxicity at 1000 µg/ml [1]	iCPD inhibition across doses [2]	Blockade of iCPDs ([3]; 250 µg/mL, 24 h preincubation)	Inhibition of delayed CPDs (dCPDs) [4]	Gene expression of Xrcc1 [5]	Gene expression of Xpa, Xpc and Mitf (NER pathway) [5]	Amount of nitrotyrosine (NOS activity marker) [6]	Effect on iCPDs [7]	Inhibition of delayed or dark CPDs (dCPDs) [7]	Inhibition of MMP-3 activity [8]	iCPD inhibition ([3]; various doses, Supplementary Figure S2A)	Inhibition of total CPDs (iCPDs + dCPDs) ([4]; extrapolated from 50% iCPD reduction and complete dCPD blockade, pigmented melanocytes)
COc1cc(CC(C(C)=O)C(C)=O)ccc1O [AZ, 3-(4-Hydroxy-3-methoxybenzyl)-pentane-2,4-dione]	cytotoxic	no significant impact	~ 50%	inhibited dCPD formation almost completely	remained unaffected	remained unaffected	reduced the amount of nitrotyrosine	without any significant effect	inhibition	inhibited		
COc1ccc(CC(C(C)=O)C(C)=O)cc1 [MBPD, 3-(4-Methoxy-benzyl)-pentane-2,4-dione]		no significant impact		abrogated the delayed CPDs completely	remained unaffected	upregulated	reduced the amount of nitrotyrosine				did not show any effect	~ 80% and 70–80%
